The record followed here is patent publication EP0076089A2, “Azabicycloalkane derivatives, process for their preparation, and a pharmaceutical composition containing them” (BEECHAM GROUP PLC, priority 1981, dated 1983).

In the assay the test system is spontaneous climbing behaviour of mice. The experiment in a line: Spontaneous climbing behaviour of mice (method of Martres et al.). It is filed as in vivo. The conditions noted are these: 0.2mg/kg subcutaneous, climbs counted over a 10 minute period commencing 3 minutes after administration, percentage change from control group. The procedure: It is believed that this inhibitory effect is mediated by stimulation of presynaptic dopaminergic autoreceptors, i.e. receptors whose stimulation results in inhibition of dopamine synthesis and electrical activity of dopamine neurones. Spontaneous climbing behaviour was assessed by the method of M.P. Martres et al., Brain Research, 1977, 136, 319. This involves the monitoring of the frequency of climbing behaviour of mice in inverted food hoppers over a 10 minute period commencing 3 minutes after subcutaneous administration of compound. A climb is defined as the mouse having all four feet off the ground. Experiments are carried out with a minimum of 5 groups of 10 mice, one group acting as control.

Structures can show the parent of a compound that is named as a salt.

Consider `Oc1cccc(C2CCC3CCC2N3CCc2ccccc2)c1` (racemic) [Compound 20, 2-endo-8-phenethyl-2-(3'-hydroxyphenyl)-8-azabicyclo[3.2.1] octane], for which the “% Inhibition of Spontaneous Climbing at 0.2mg/kg” value (“% Inhibition” for short) is reported as 12%. As for `Oc1cccc(C2CCC3CCC2N3Cc2ccccc2)c1` (racemic) [Compound 14, (±)-(2-endo)-8-Benzyl-2-(3'-hydroxyphenyl)-8-azabicyclo(3.2.1)octane hydrobromide], the “% Inhibition” value (hydrobromide, 0.2 mg/kg) is recorded as 38%. Still for that read-out and setting: the same measure for `Oc1cccc(C2CCC3CCC2N3Cc2ccccc2)c1` (racemic) [Compound 13, (±)-(2-Exo)-8-Benzyl-2-(3'-hydroxyphenyl)-8-azabicyclo(3.2.1)octane hydrobromide]: 24%. On to `CCCN1C2CCC(c3cccc(O)c3)C1CC2` (racemic) [Compound 16, 2-endo-8-n-propyl-2-(3'-hydroxyphenyl)-8-azabicyclo[3.2.7]octane], for which the “% Inhibition” value worked out at 49%.
